Source: publication PMC4999848 (Toxins, 2016)
Where “and” joins values, the source holds several entries; their conditions need not be identical. Equal entries are not always repeated.

Experiments:
[1] = parameters: method as in PMID 26343882; conditions: chickens, after oral or i.v treatment; cited from earlier work
[2] = Deacetylation of 3/15ADON by small intestine S9 fraction; type: in vitro ADME, human
Method: Stock solutions of DON, 3ADON and 15ADON at 2 mg/mL were prepared in absolute ethanol and stored at −20 °C. For deacetylation assay, 3- or 15ADON were incubated with cells, explants, bacteria or digestive enzymes after being diluted in PBS^++ at a final concentration of 100 μM. PBS^++ solution containing only ethanol (at 1.5% final concentration) or DON (at 100 μM) were used in parallel as negative and positive control, respectively. For cells and explants, deacetylation assay take place in 6-well plates, wells being filled with 2 mL of PBS^++ containing either ethanol, DON, 3- or 15ADON. For fecal bacteria and digestive enzyme assay, deacetylation assay was conducted in 2 mL Eppendorf tubes filled with 1.5 mL of PBS^++ containing either ethanol, DON, 3- or 15ADON. In vitro intestinal digestion by luminal enzymes was performed using porcine enzymes from Sigma-Aldrich and physiological conditions. Briefly, 3- or 15ADON were incubated with pepsin (at 1.6 mg/mL corresponding to 900 U/mL), trypsin (at 0.35 mg/mL corresponding to 6000 U/mL), pancreatic lipase (at 0.75 mg/mL corresponding to 18 U/mL) or pancreatin (at 1.23 mg/mL, lipase activity >10 U/mL, protease activity >100 U/mL, amylase activity >100 U/mL). Except for pepsin for which the digestion was conducted in HCl solution at 10 mM (pH 2.3), in vitro digestion was performed in PBS^++ (pH 7.4). Finally, deacetylation assay was also performed with commercial pooled S9 fractions from human liver, small intestine and kidneys as well as with pure recombinant human CES1 and CES2. S9 fractions and CES1/2 were used at 0.1 mg/mL and 5 μg/mL (corresponding to CES activity >20 U/mL), respectively. In all cases, aliquots of the reaction solution were collected immediately (i.e., “time zero” sample) or after the indicated time period at 37 °C and analyzed by HPLC. […] In all cases, the experiments were conducted in triplicate (n = 3).
Deacetylation was monitoring both in term of disappearance of 3- or 15ADON and formation of DON. Measurement of DON, 3ADON and 15ADON concentrations was performed by reversed-phase HPLC using Waters Alliance System equipped with a Waters 2690 XE separation module and a Waters 996 photodiode array detector (Waters, Saint Quentin Falavier, France). The separation was achieved by mean of a LiChroCart column (125 mm × 4 mm) packed with 5 μm RP-18 Purospher gel (Merck, Darmstadt, Germany) and equipped with a LiChroCart precolumn (4 mm × 4 mm) packed with the same material (Merck). The precolumn and column were placed in room temperature. The elution procedure was carried out at 0.7 mL·min^−1 by a methanol–water solvent, using the following conditions: 40% methanol during 2 min followed by an increase in methanol to 50% at 2.1 min. The detection wavelength was set at 237 nm allowing the best signal/baseline ratio for simultaneous detection of the three DON forms in the incubation mediums. Under these conditions, DON and 3/15ADON were clearly separated, the retention time being around 2.7 min and 5.7 min, for DON and 3/15ADON, respectively (Figure 9). Quantification was based on calibration with the corresponding standard using Millinium Software (Waters, Saint Quentin Falavier, France).

[3] = parameters: method as in PMID 26343882; conditions: pigs, oral and intravenous (i.v) exposures; cited from earlier work
human fecal bacteria = conditions: 48 h incubation; cited from earlier work
[4] = S9 Intestine + Benzil 100 μM (Table 1)
[5] = S9 small intestine 0.1 mg/mL, 37 °C, substrate 100 μM (Table 3)

## CC(=O)OC[C@]12[C@H](O)C(=O)C(C)=C[C@H]1O[C@@H]1[C@H](O)C[C@@]2(C)[C@]12CO2 [15ADON, 15-acetyldeoxynivalenol]
[1]
  Acetylated form in blood: traces of 15ADON are present in the blood
[2]; [4]
  Disappearance of 3/15ADON, specific activity: 171 ± 79 pmol/min/mg
[2]; [5]
  Disappearance of 3/15ADON, specific activity: 166 pmol/min/mg and 166 ± 20 pmol/min/mg
[3]
  Transformation into DON in vivo: complete transformation into DON

## CC(=O)O[C@@H]1C[C@]2(C)[C@@]3(CO)[C@H](O)C(=O)C(C)=C[C@H]3O[C@H]1[C@@]21CO1 [3ADON, 3-acetyldeoxynivalenol]
[2]; [4]
  Disappearance of 3/15ADON, specific activity: 875 ± 83 pmol/min/mg
[2]; S9 Intestine, without benzil (Table 1)
  Disappearance of 3/15ADON, specific activity: 1166 ± 110 pmol/min/mg
[2]; [5]
  Disappearance of 3/15ADON, specific activity: 1250 pmol/min/mg and 1250 ± 79 pmol/min/mg
Human fecal bacteria
  % deacetylation: 78% ± 30%
[3]
  Transformation into DON in vivo: complete transformation into DON
